{
  "source": "patent US12337010B2",
  "about": "“Compositions and methods of treatment using nicotinamide mononucleotide” (Washington University, priority 2017, dated 2025)",
  "key": {"[1]": {"test_system": "primary mouse hepatocytes", "assay": "NMN uptake in primary mouse hepatocytes, intracellular NMN by HPLC", "type": "cell-based", "protocol": "(§1) The amounts of adenosine produced were determined by HPLC. […] Silencing efficiencies were evaluated by quantitative RT-PCR.\nPrimary mouse hepatocytes were pretreated with 500 nM FK866 for 24 h and then incubated with a cocktail of 20 μM dipyridamole, 500 μM AOPCP, and 500 nM FK866, with or without 100 μM NMN. NMN was measured by HPLC (n=4 mice, except for 3 data sets for 15 and 30 minute time points for inhibitors only; analyzed using ANOVA with Sidak's test).\nTo measure the knockdown efficiencies of Slc12a8 and Nrk1 mRNA in primary mouse hepatocytes, cells were treated with scramble and Slc12a8 or Nrk1 siRNA for 72 h (n=5 mice for Slc12a8 silencing and n=3 for Nrk1 silencing; analyzed by unpaired […] t-test). Without being limited by theory, these conditions knocked down expression of Slc12a8 and Nrk1, a major NR kinase that converts NR to NMN intracellularly (Belenky, P., et al., Cell, 129, 473-484, 2007). Primary hepatocytes treated with scramble, Slc12a8, and Nrk1 siRNA were assayed at 1 min after addition of 100 μM NMN via HPLC. Culture conditions were the same as described in Example 3 (n=5 mice for Slc12a8 silencing and n=3 for Nrk1 silencing; analyzed by ANOVA with Tukey's test). The knockdown efficiencies for both genes are approximately 80% (FIG. 7)."}, "NIH3T3 cells": {"test_system": "NIH3T3 cells", "assay": "Intracellular NAD+ levels in control and Slc12a8-OE NIH3T3 cells", "type": "cell-based, mouse", "conditions": "Slc12a8-OE cells, additional 1-hr incubation with 100 μM NMN after inhibitor cocktail", "source_text": "NAD+ and NMN measurements by HPLC."}, "Slc12a8 mRNA expression": {"test_system": "Slc12a8 mRNA expression", "assay": "Slc12a8 mRNA expression by quantitative RT-PCR in cells and ex vivo small intestine explants", "type": "cell-based, mouse", "conditions": "FK866 plus NMN; primary hepatocytes, NIH3T3 fibroblasts (24 h), jejunum and ileum explants (4 h)", "protocol": "Cell culture and ex vivo small intestine explant culture. […] For Slc12a8 mRNA expression analysis, 2.5×10^5 cells per well were incubated in 6-well plates with DMEM with 1% FBS containing 0.1% DMSO or 100 nM FK866 or 100 nM FK866 plus 100 μM NMN for 24 h. Small intestines from 3-month old B6 male mice were cut into three segments with duodenum/jejunum/ileum length ratios of 1:3:2 (Wang, H. H., et al., Hepatology 45, 998-1006, 2007). […] Cellular and tissue RNA samples were analyzed by quantitative RT-PCR, as described previously (Stein, L. R. & Imai, S., EMBO J., 33, 1321-1340, 2014).\nas §1\nFIG. 2 illustrates that Slc12a8 is highly expressed in the small intestine and pancreas and moderately in the liver and white adipose tissue of B6 male mice at 3 months of age (n=3 mice). […] Cells were treated with these compounds for 24 h (n=4 mice for hepatocytes treated with DMSO and FK866, and n=3 mice for hepatocytes treated with FK866 and NMN; n=6 for NIH3T3 cells; analyzed using ANOVA with Tukey's test). FIG. 5 illustrates surface and intracellular Slc12a8 protein expression levels were measured by flow cytometry analysis in NIH3T3 cells treated with FK866 or FK866 plus NMN for 48h. […]"}},
  "data": [
    {"smiles": "NC(=O)c1ccc[n+]([C@@H]2O[C@H](COP(=O)([O-])O)[C@@H](O)[C@H]2O)c1", "note": "[NMN, nicotinamide mononucleotide]", "values": [
      {"measurement": "intracellular NMN levels", "setting": "[1]; 100 μM NMN with 20 μM dipyridamole, 500 μM AOPCP, 500 nM FK866, 1 min time point vs control", "result": "significantly increase"},
      {"measurement": "NMN uptake", "setting": "[1]; Nrk1-knockdown hepatocytes, 1 min after 100 μM NMN", "result": "no significant reduction"},
      {"measurement": "fast uptake of NMN", "setting": "[1]; Slc12a8-knockdown hepatocytes, 1 min after 100 μM NMN", "result": "completely abrogated"},
      {"measurement": "intracellular NAD+ levels", "setting": "NIH3T3 cells", "result": "restore NAD+ levels to the original levels"},
      {"measurement": "Slc12a8 expression induced by FK866", "setting": "Slc12a8 mRNA expression", "result": "suppressed"}
    ]}
  ]
}
